Assay results published in PubChem BioAssay AID256 (DTP/NCI, 2004).
“And” between values parts separate entries of the source, which are not always exact repeats. Equal entries are not always repeated. Toxic doses and inconclusive results are not listed. Rule for the calls: active = survival T/C of 150% or more; inactive = T/C below 125% in these data.

Tested on: CD2F1 mice, L1210 leukemia ip, survival T/C
Test: NCI In Vivo Anticancer Drug Screen. Data for tumor model L1210 Leukemia (intraperitoneal) in CD2F1 (CDF1) mice
Conditions: higher = longer survival
Method in brief: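 Read-out first: treated-group measurement over vehicle-control measurement, expressed as a ratio. Animals bore a transplanted tumor line and were dosed with compound or vehicle.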

[1] = endpoint: mean survival time, dose: 25.0 mg/kg/injection, schedule: Q04DX002 (ip), vehicle: saline with Tween-80
[2] = endpoint: mean survival time, dose: 50.0 mg/kg/injection, schedule: Q04DX002 (ip), vehicle: saline with Tween-80
[3] = endpoint: mean survival time, dose: 100.0 mg/kg/injection, schedule: Q04DX002 (ip), vehicle: saline with Tween-80
[4] = endpoint: mean survival time, dose: 100.0 mg/kg/injection, schedule: Q01DX001 (ip), vehicle: saline with Tween-80
[5] = endpoint: mean survival time, dose: 200.0 mg/kg/injection, schedule: Q01DX001 (ip), vehicle: saline with Tween-80
[6] = endpoint: mean survival time, dose: 400.0 mg/kg/injection, schedule: Q01DX001 (ip), vehicle: saline with Tween-80
[7] = endpoint: mean survival time, dose: 100.0 mg/kg/injection, schedule: Q04DX003 (ip), vehicle: saline with Tween-80
[8] = endpoint: mean survival time, dose: 200.0 mg/kg/injection, schedule: Q04DX003 (ip), vehicle: saline with Tween-80
[9] = endpoint: mean survival time, dose: 400.0 mg/kg/injection, schedule: Q04DX003 (ip), vehicle: saline with Tween-80
[10] = endpoint: mean survival time, dose: 100.0 mg/kg/injection, schedule: Q01DX001 (ip), vehicle: other
[11] = endpoint: mean survival time, dose: 50.0 mg/kg/injection, schedule: Q01DX009 (ip), vehicle: saline with Tween-80
[12] = endpoint: mean survival time, dose: 200.0 mg/kg/injection, schedule: Q04DX002 (ip), vehicle: saline with Tween-80
[13] = endpoint: mean survival time, dose: 400.0 mg/kg/injection, schedule: Q04DX002 (ip), vehicle: saline with Tween-80
[14] = endpoint: mean survival time, dose: 100.0 mg/kg/injection, schedule: Q01DX009 (ip), vehicle: saline sonified
[15] = endpoint: mean survival time, dose: 200.0 mg/kg/injection, schedule: Q01DX009 (ip), vehicle: saline sonified
[16] = endpoint: mean survival time, dose: 400.0 mg/kg/injection, schedule: Q01DX009 (ip), vehicle: saline sonified
[17] = endpoint: mean survival time, dose: 100.0 mg/kg/injection, schedule: Q01DX009 (ip), vehicle: saline with Tween-80
[18] = endpoint: mean survival time, dose: 200.0 mg/kg/injection, schedule: Q01DX009 (ip), vehicle: saline with Tween-80

Measured: T/C

c1ccc(Sc2ccncc2)cc1
inactive: [1] 102 % of control | [2] 91 % of control | [3] 98 % of control and 105 % of control

CCCCOC(=O)c1cnc[nH]c1=O
inactive: [4] 95 % of control | [5] 93 % of control | [6] 96 % of control

CC(C)CCCC(C)C1CCC2C3CC4OC45CC(O)CCC5(C)C3CCC12C (stereo not given)
inactive: [7] 96 % of control | [8] 90 % of control | [9] 96 % of control

COc1ccc2c(c1C)Cc1ccccc1C2=O
inactive: [7] 90 % of control | [8] 89 % of control | [9] 97 % of control

CCOC(=O)Cc1c(C)[nH]c2c(C)ccc(C)c12
inactive: [10] 95 % of control

CCN(Cc1ccccc1)c1ccc(SC#N)cc1
inactive: endpoint: mean survival time, dose: 100.0 mg/kg/injection, schedule: Q01DX001 (ip), vehicle: saline 100 % of control | endpoint: mean survival time, dose: 200.0 mg/kg/injection, schedule: Q01DX001 (ip), vehicle: saline 100 % of control | endpoint: mean survival time, dose: 400.0 mg/kg/injection, schedule: Q01DX001 (ip), vehicle: saline 93 % of control

Cc1nc(C#N)c(N)nc1Cl
inactive: endpoint: mean survival time, dose: 100.0 mg/kg/injection, schedule: Q04DX002 (ip), vehicle: Klucel (hydroxypropylcellulose) (HPC) 109 % of control | endpoint: mean survival time, dose: 200.0 mg/kg/injection, schedule: Q04DX002 (ip), vehicle: Klucel (hydroxypropylcellulose) (HPC) 91 % of control | endpoint: mean survival time, dose: 400.0 mg/kg/injection, schedule: Q04DX002 (ip), vehicle: Klucel (hydroxypropylcellulose) (HPC) 109 % of control

CCOC(=O)N1C(=O)C2C3CCC(O3)C2C1=O (stereo not given)
inactive: [1] 104 % of control | [2] 90 % of control | [3] 109 % of control

O=C(O)C1(C(=O)O)CCCCC1.[NH-]CC1(C[NH-])CCCCC1.[Pt+2]
inactive: endpoint: mean survival time, dose: 30.0 mg/kg/injection, schedule: Q04DX003 (ip), vehicle: suspension in saline 118 % of control | endpoint: mean survival time, dose: 60.0 mg/kg/injection, schedule: Q04DX003 (ip), vehicle: suspension in saline 118 % of control

N#CC(CC(=O)c1ccccc1)c1ccccc1 (stereo not given)
inactive: [7] 90 % of control | [8] 102 % of control | [9] 104 % of control

CNC(=S)N/N=C/c1c(Cl)n(-c2ccccc2)c2c(/C=N/NC(=S)NC)cccc12
inactive: endpoint: mean survival time, dose: 25.0 mg/kg/injection, schedule: Q04DX003 (ip), vehicle: Klucel (hydroxypropylcellulose) (HPC) 96 % of control | endpoint: mean survival time, dose: 50.0 mg/kg/injection, schedule: Q04DX003 (ip), vehicle: Klucel (hydroxypropylcellulose) (HPC) 93 % of control | endpoint: mean survival time, dose: 100.0 mg/kg/injection, schedule: Q04DX003 (ip), vehicle: Klucel (hydroxypropylcellulose) (HPC) 89 % of control

O=c1cc(CCl)n2cnc3c(ncn3C3OC(CO)C(O)C3O)c2n1 (stereo not given)
inactive: endpoint: median survival time, dose: 12.5 mg/kg/injection, schedule: Q01DX005 (ip), vehicle: saline with Tween-80 103 % of control | endpoint: median survival time, dose: 25.0 mg/kg/injection, schedule: Q01DX005 (ip), vehicle: saline with Tween-80 102 % of control | endpoint: median survival time, dose: 50.0 mg/kg/injection, schedule: Q01DX005 (ip), vehicle: saline with Tween-80 96 % of control | endpoint: median survival time, dose: 100.0 mg/kg/injection, schedule: Q01DX005 (ip), vehicle: saline with Tween-80 104 % of control | endpoint: median survival time, dose: 200.0 mg/kg/injection, schedule: Q01DX005 (ip), vehicle: saline with Tween-80 98 % of control

COc1cc(C=O)ccc1OC(=O)Nc1cc([N+](=O)[O-])ccc1Cl
inactive: [11] 98 % of control and 102 % of control | [4] 93 % of control | [3] 92 % of control and 102 % of control | [7] 93 % of control | [5] 108 % of control | [12] 91 % of control and 92 % of control | [8] 107 % of control | [6] 96 % of control | [13] 88 % of control and 96 % of control | [9] 100 % of control

CC(CO)CC/C(=N\O)C(C)C1/C(=N/O)CC2C=C3CC(O)CCC3(C)CC21C (stereo not given)
inactive: [7] 92 % of control | [8] 92 % of control | [9] 87 % of control

O=c1[nH]ccn1C1CCCCC1
inactive: endpoint: mean survival time, dose: 50.0 mg/kg/injection, schedule: Q01DX001 (ip), vehicle: other 100 % of control | [10] 96 % of control and 97 % of control | endpoint: mean survival time, dose: 200.0 mg/kg/injection, schedule: Q01DX001 (ip), vehicle: other 97 % of control and 100 % of control

ClC1(Cl)C2CCCCCCC21 (stereo not given)
inactive: endpoint: mean survival time, dose: 100.0 mg/kg/injection, schedule: Q01DX001 (ip), vehicle: saline sonified 95 % of control | [14] 103 % of control | [3] 91 % of control | endpoint: mean survival time, dose: 200.0 mg/kg/injection, schedule: Q01DX001 (ip), vehicle: saline sonified 105 % of control | [15] 101 % of control | [12] 95 % of control | endpoint: mean survival time, dose: 400.0 mg/kg/injection, schedule: Q01DX001 (ip), vehicle: saline sonified 100 % of control | [16] 103 % of control

CN1C2CCC1C(CCl)C(O)C2 (stereo not given)
inactive: endpoint: mean survival time, dose: 50.0 mg/kg/injection, schedule: Q01DX009 (ip), vehicle: saline 97 % of control | endpoint: mean survival time, dose: 100.0 mg/kg/injection, schedule: Q01DX009 (ip), vehicle: saline 104 % of control | endpoint: mean survival time, dose: 200.0 mg/kg/injection, schedule: Q01DX009 (ip), vehicle: saline 101 % of control

O=C(CC1(Cl)C(F)(F)C(F)(F)C1(F)F)c1ccccc1
inactive: [4] 95 % of control

O=S1(=O)OCCC1C(O)(c1ccccc1)c1ccccc1 (stereo not given)
inactive: endpoint: mean survival time, dose: 75.0 mg/kg/injection, schedule: Q01DX009 (ip), vehicle: saline 97 % of control | endpoint: mean survival time, dose: 75.0 mg/kg/injection, schedule: Q04DX003 (ip), vehicle: saline 100 % of control | endpoint: mean survival time, dose: 150.0 mg/kg/injection, schedule: Q01DX009 (ip), vehicle: saline 103 % of control | endpoint: mean survival time, dose: 150.0 mg/kg/injection, schedule: Q04DX003 (ip), vehicle: saline 97 % of control | endpoint: mean survival time, dose: 300.0 mg/kg/injection, schedule: Q01DX009 (ip), vehicle: saline 100 % of control | endpoint: mean survival time, dose: 300.0 mg/kg/injection, schedule: Q04DX003 (ip), vehicle: saline 97 % of control

O=[As](O)(O)c1ccccc1[As](=O)(O)O
inactive: endpoint: mean survival time, dose: 6.25 mg/kg/injection, schedule: Q04DX003 (ip), vehicle: saline with Tween-80 101 % of control | endpoint: mean survival time, dose: 12.5 mg/kg/injection, schedule: Q04DX003 (ip), vehicle: saline with Tween-80 101 % of control | endpoint: mean survival time, dose: 25.0 mg/kg/injection, schedule: Q04DX003 (ip), vehicle: saline with Tween-80 100 % of control

O=C(Nc1cccc(O)c1)OCCCCl
inactive: [7] 98 % of control | [8] 98 % of control | [9] 96 % of control

O=C(C=C(C(F)(F)F)C(F)(F)F)c1ccc(Cl)c2ccccc12
inactive: [7] 105 % of control

O=C(O)CCC(=O)CC1CCCCC1
inactive: [11] 98 % of control | [17] 105 % of control | [18] 98 % of control

O=C(NCCO)NCCO
inactive: [14] 110 % of control | [15] 104 % of control | [16] 110 % of control

Cc1ccc(S(=O)(=O)NCCC(=O)Nc2ccccc2)cc1
inactive: endpoint: mean survival time, dose: 50.0 mg/kg/injection, schedule: Q01DX009 (ip), vehicle: water 86 % of control | endpoint: mean survival time, dose: 100.0 mg/kg/injection, schedule: Q01DX009 (ip), vehicle: water 86 % of control | endpoint: mean survival time, dose: 200.0 mg/kg/injection, schedule: Q01DX009 (ip), vehicle: water 93 % of control

O=C1OC(/C=C\c2ccccc2)=NC/1=C\c1cc(Br)cc(Br)c1O
inactive: [3] 94 % of control | [12] 98 % of control | [13] 105 % of control

c1cncc(CCc2cccnc2)c1
inactive: endpoint: mean survival time, dose: 100.0 mg/kg/injection, schedule: Q04DX003 (ip), vehicle: saline 100 % of control | endpoint: mean survival time, dose: 200.0 mg/kg/injection, schedule: Q04DX003 (ip), vehicle: saline 100 % of control

Cc1ccc(S(=O)(=O)NNC(=O)C2(C)CC2(C)C(=O)O)cc1 (stereo not given)
inactive: [17] 96 % of control | [18] 96 % of control | endpoint: mean survival time, dose: 400.0 mg/kg/injection, schedule: Q01DX009 (ip), vehicle: saline with Tween-80 100 % of control

CCOC(N)=O
inactive: endpoint: mean survival time, dose: 125.0 mg/kg/injection, schedule: Q01DX009 (ip), vehicle: saline 98 % of control and 101 % of control | endpoint: mean survival time, dose: 250.0 mg/kg/injection, schedule: Q01DX009 (ip), vehicle: saline 104 % of control and 109 % of control | endpoint: mean survival time, dose: 500.0 mg/kg/injection, schedule: Q01DX009 (ip), vehicle: saline 116 % of control and 101 % of control | endpoint: mean survival time, dose: 1000.0 mg/kg/injection, schedule: Q01DX009 (ip), vehicle: saline 89 % of control and 105 % of control

CN(C)CCCN1c2ccc(O)cc2Sc2ccc(Cl)cc21
inactive: endpoint: mean survival time, dose: 25.0 mg/kg/injection, schedule: Q01DX009 (ip), vehicle: saline with Tween-80 90 % of control | [11] 96 % of control | [17] 107 % of control
